# Reference: patent publication US10092620B2, “Uses of cyclic peptides for treating and preventing atherosclerosis” (THE SCRIPPS RESEARCH INSTITUTE, priority 2013, dated 2018)
# Non-standard residues stand in square brackets, D forms with d. dNMeW = CN[C@H](Cc1c[nH]c2ccccc12)C(=O)O; dNMeS = CN[C@H](CO)C(=O)O; Orn = NCCC[C@H](N)C(=O)O
# How the values were obtained:
# [1] = system: human plasma HDL; assay: human plasma HDL remodeling (NDGGE, immunoblot for human apoA-I); format: biochemical; settings: human plasma in vitro; Western blot for apoA-I; FIGS. 1 and 2a
# Text: As an initial phase of investigation, we evaluated in vitro the effectiveness of our cyclic D,L-α-peptides to remodel mature human plasma HDLs into lipid-poor HDL (FIG. 1 and FIG. 2a). Lipid-poor HDL particles are key acceptors of cholesterol in reverse cholesterol transport and are thus crucial for combating atherosclerosis. In fact, with respect to the cholesterol efflux capacity of human sera, the levels of lipid-poor HDL correlate much better than the levels of HDL-cholesterol or apoA-I. Briefly, our assay involved incubating human plasma with a peptide, after which the plasma sample was subjected to non-denaturing gradient gel electrophoresis (NDGGE) to separate the HDL subspecies and then immunoblotted for human apoA-I. The ranked activities of the cyclic D,L-α-peptides in promoting formation of lipid-poor HDL are shown in FIG. 1. It should be noted that there are inherent variabilities associated with electrophoretic transfer, staining, and densitometric quantitation, so the peptide ranking should be viewed as an approximate guide to relative plasma HDL remodeling efficacy. Nevertheless, the rankings were similar overall whether the panel was assayed by using peptide stock solutions prepared in 10% sucrose/H2O (FIGS. 1 and 2a) or peptide stock solutions prepared in 1:1 DMSO/H2O. From these preliminary structure-activity relationship (SAR) studies, we identified a pronounced sequence dependence for efficient plasma HDL remodeling (vide infra).
# Human plasma remodeling: All procedures involving human samples were approved by TSRI Institutional Review Board. Procedures were modified from those reported in Troutt et al., J. Lipid Res. 49, 581-587, 2008. Blood samples from normal healthy human donors were obtained from TSRI Normal Blood Donor Program. EDTA-anticoagulated whole blood was centrifuged at 1500×g for 15 min within 1 h of being drawn from the donor. The plasma layer was aliquoted and used immediately or frozen at −80° C. for future use. Peptide stock solutions were prepared at ˜15 mM peptide in 50% DMSO for initial screenings, or at ˜2 mM peptide in 10% sucrose for remodeling assays at lower concentrations (FIG. 1) and cholesterol efflux assays (FIG. 2). Plasma samples (30 μL) were treated with peptide stocks, and the samples were incubated at 37° C. for 0.5-1 h, and then quenched by adding 270 μL of 50% sucrose (1:9 dilution). Samples were mixed with 6× native loading buffer (125 mM tris, pH 6.8, 0.02% bromophenol, 20% glycerol), of which 6 μL was loaded onto a 4-20% polyacrylamide gel. The molecular weight ladder used was High Molecular Weight Calibration Kit (Amersham Biosciences, #17-0445-01). […] The films were scanned and quantified by densitometry using the program LabWorks (v. 4.0.0.8). […]
# [2] = system: mouse macrophage J774 cells; assay: cholesterol efflux from mouse macrophage cells incubated with peptide-treated human plasma; format: cell-based; settings: J774 cells, 2% apoB-depleted peptide-treated human plasma, 4 h; FIG. 2b
# Method: Selected cyclic D,L-α-peptides were further evaluated for their ability to promote cellular cholesterol efflux from mouse macrophage J774 cells. A main factor for HDL anti-atherogenicity is its role in reverse cholesterol transport, of which cellular cholesterol efflux is a critical component. To measure efflux mediated by the cyclic D,L-α-peptides, cholesterol-laden cells were incubated with peptide-treated plasma for 4 h, after which the level of cholesterol effluxed to the media was measured as described in Sankaranarayanan et al., J. Lipid Res. 52, 2332-2340, 2011.
# Preparation of labeling medium: These procedures were modified from that reported in Sankaranarayanan et al., J. Lipid Res. 52, 2332-2340, 2011. The labeling medium was prepared by complexing the unlabeled cholesterol and BODIPY-cholesterol (20% of the total cholesterol) with methyl-β-cyclodextrin (CD) at a molar ratio of 1:40 (total cholesterol/CD). Unlabeled cholesterol and BODIPY-cholesterol were dissolved in chloroform and dried in a round bottom flask by rotor-evaporation in the dark to form a thin film. The cholesterol mixture was solubilized by adding 20 mM CD in MEM-HEPES buffer. The suspension was sonicated in a water bath (37° C.) for at 1 h, stirred at 37° C. for 3 h, filtered using a 0.45-μm syringe filter, and diluted with an equal volume of MEM-HEPES buffer containing 4 μg/mL Sandoz ACAT (acyl-CoA:cholesterol acyltransferase) inhibitor (Sigma). The final concentrations of BODIPY-cholesterol, unlabeled cholesterol, CD, and ACAT inhibitor in the labeling medium were 0.025 mM, 0.1 mM, 10 mM, and […], respectively.
# Preparation of efflux medium: Just before the initiation of the efflux assays, the human plasma frozen at −80° C. was thawed, and 80 μL of plasma was incubated with 20 μL of cyclic peptide stocks (peptide stocks were 1-3 mg/mL in 10% sucrose) or the vehicle (10% sucrose) at 37° C. for 30 min. The treated plasma samples (100 μL) were then incubated with 25% PEG 8000 solution in 200 mM glycine buffer, pH 8.5 (40 μL) to precipitate apoB-containing lipoproteins (Asztalos et al., J. Lipid Res. 46, 2246-2253, 2005). After a 15-min incubation, the precipitate was removed by high-speed centrifugation (13,000 rpm, 10 min, 4° C.), and the supernatant (60 μL) was immediately diluted with MEM-HEPES buffer (1.5 mL) to give ˜2% whole plasma. This solution, containing the peptide remodeled-HDL lipoprotein fraction as cholesterol acceptors, was used as the efflux medium.
# Cholesterol efflux from mouse macrophage cells: Mouse macrophage J774A.1 cells (TIB-67; American Type Culture Collection, Manassas, Va.) were seeded in 12-well culture plate at 3×10^5 cells/mL and cultured to 80-90% confluency in DMEM with 10% FBS at 5% CO2. Cells were rinsed twice with MEM-HEPES, incubated for 1 h with 0.25 ml of labeling medium containing CD/BODIPY-cholesterol/unlabeled cholesterol and 2 μg/mL Sandoz ACAT inhibitor, followed by washing twice with MEM-HEPES. The cholesterol-laden cells were equilibrated for 18 h in DMEM containing 5% LPDS, […] Sandoz ACAT inhibitor, and 0.3 mM Cpt-cAMP. After equilibration, the cells were washed twice with MEM-HEPES and incubated with 0.25 mL of efflux media for 4 h. At the end of the incubation time, the efflux media was removed and centrifuged (1200 rpm, 10 min) to remove floating cells, and the fluorescence intensity of 100 μL cell-free media was recorded using a Tecan GENios plate reader (excitation 485 nm, emission 535 nm). The obtained signals were background subtracted using the signal from unlabeled cells. The cell monolayers were rinsed twice with ice-cold MEM-HEPES and solubilized with 0.25 mL 1% cholic acid by shaking on a plate shaker for at least 4 h at room temperature; then the fluorescence intensity of 100 μL cell lysate was recorded and background subtracted using the signal from unlabeled cell lysate. […]
Substance,plasma HDL remodeling to lipid-poor HDL (in words) [1],promotion of cellular cholesterol efflux (in words) [2]
"Ac-wLwSeQsO-NH2 (Ac-[dW]L[dW]S[dE]Q[dS][Orn]-NH2) [SEQ ID NO:45, acetylated linear peptide]",failed to remodel plasma HDL,failed to remodel plasma HDL or promote cholesterol efflux
c[wL^MewSeQ^MesO] (cyclo([dW]L[dNMeW]S[dE]Q[dNMeS][Orn])) [SEQ ID NO:14],"greatly diminished compared to the unmethylated parent, compound 4","greatly diminished compared to the unmethylated parent, compound 4"
c[wLwErQrE] (cyclo([dW]L[dW]E[dR]Q[dR]E); SMILES CC(C)C[C@@H]1NC(=O)[C@@H](Cc2c[nH]c3ccccc23)NC(=O)[C@H](CCC(=O)O)NC(=O)[C@@H](CCCNC(=N)N)NC(=O)[C@H](CCC(N)=O)NC(=O)[C@@H](CCCNC(=N)N)NC(=O)[C@H](CCC(=O)O)NC(=O)[C@@H](Cc2c[nH]c3ccccc23)NC1=O) [SEQ ID NO:37],dramatically reduced compared to that of compound 1,dramatically reduced compared to that of compound 1
